From patent US20240360177A1, “PEPTIDES WITH ANTIMICROBIAL ACTIVITIES” (priority 2021, published 2024)
Values after ≈ are worked out from the molar mass of the structure shown. Non-standard residues stand in square brackets, D forms with d. Residues, ends and D or L forms follow the SMILES beside them. hLeu = CC(C)CC[C@H](N)C(=O)O; NBuGly = CCCCNCC(=O)O; AEA = NCCOCC(=O)O; Ava = NCCCCC(=O)O; βAla = NCCC(=O)O

Legend:
Settings in all cases: 24 h
C. parapsilosis = tested on: C. parapsilosis
C. glabrata = tested on: C. glabrata
C. tropicalis = tested on: C. tropicalis
C. albicans = tested on: C. albicans
C. dubliniensis = tested on: C. dubliniensis

| Molecule | MIC C. parapsilosis (C. parapsilosis) [µg/mL] | MIC C. glabrata (C. glabrata) [µg/mL] | MIC C. tropicalis (C. tropicalis) [µg/mL] | MIC C. albicans (C. albicans) [µg/mL] | MIC C. dubliniensis (C. dubliniensis) [µg/mL] |
| --- | --- | --- | --- | --- | --- |
| N=C(N)NCCC[C@@H](N)C(=O)N[C@@H](CCCNC(=N)N)C(=O)N[C@H](CCCNC(=N)N)C(=O)NCCCCC(=O)N[C@H](CCCNC(=N)N)C(=O)N[C@@H](CCCNC(=N)N)C(=O)N[C@H](CCCNC(=N)N)C(=O)NCCCCC(=O)N[C@H](CCCNC(=N)N)C(=O)N[C@@H](CCCNC(=N)N)C(=O)N[C@H](CCCNC(=N)N)C(=O)N[C@@H](CCCNC(=N)N)C(=O)NCCOCC(=O)N[C@H](CCCNC(=N)N)C(=O)N[C@@H](CCCNC(=N)N)C(=O)N[C@H](CCCNC(=N)N)C(=O)N[C@@H](CCCNC(=N)N)C(N)=O [SEQ ID NO: 49, rRr-(Ava)-rRr-(Ava)-rRrR-(Aea)-rRrR-NH2] (H-[dR]R[dR][Ava][dR]R[dR][Ava][dR]R[dR]R[AEA][dR]R[dR]R-NH2) | 0.5 (≈ 0.2 µM) | 1 (≈ 0.4 µM) | 0.5 (≈ 0.2 µM) | 1 (≈ 0.4 µM) | 0.5 (≈ 0.2 µM) |
| N=C(N)NCCC[C@@H](N)C(=O)N[C@@H](CCCNC(=N)N)C(=O)N[C@H](CCCNC(=N)N)C(=O)NCCCCC(=O)N[C@H](CCCNC(=N)N)C(=O)N[C@@H](CCCNC(=N)N)C(=O)N[C@H](CCCNC(=N)N)C(=O)NCCOCC(=O)N[C@H](CCCNC(=N)N)C(=O)N[C@@H](CCCNC(=N)N)C(=O)N[C@H](CCCNC(=N)N)C(=O)N[C@@H](CCCNC(=N)N)C(=O)NCCCCC(=O)N[C@H](CCCNC(=N)N)C(=O)N[C@@H](CCCNC(=N)N)C(=O)N[C@H](CCCNC(=N)N)C(=O)N[C@@H](CCCNC(=N)N)C(N)=O [SEQ ID NO: 48, rRr-(Ava)-rRr-(Aea)-rRrR-(Ava)-rRrR-NH2] (H-[dR]R[dR][Ava][dR]R[dR][AEA][dR]R[dR]R[Ava][dR]R[dR]R-NH2) | 0.5 (≈ 0.2 µM) | 1 (≈ 0.4 µM) | 0.5 (≈ 0.2 µM) | 0.5 (≈ 0.2 µM) | 0.5 (≈ 0.2 µM) |
| N=C(N)NCCC[C@@H](N)C(=O)N[C@@H](CCCNC(=N)N)C(=O)N[C@H](CCCNC(=N)N)C(=O)NCCC(=O)N[C@@H](CCCNC(=N)N)C(=O)N[C@@H](CCCNC(=N)N)C(=O)N[C@@H](CCCNC(=N)N)C(=O)NCCC(=O)N[C@H](CCCNC(=N)N)C(=O)N[C@@H](CCCNC(=N)N)C(=O)N[C@H](CCCNC(=N)N)C(=O)N[C@@H](CCCNC(=N)N)C(=O)NCCC(=O)N[C@H](CCCNC(=N)N)C(=O)N[C@@H](CCCNC(=N)N)C(=O)N[C@H](CCCNC(=N)N)C(=O)N[C@@H](CCCNC(=N)N)C(N)=O [SEQ ID NO: 10, rRr-(Apr)-RRR-(Apr)-rRrR-(Apr)-rRrR-NH2] (H-[dR]R[dR][βAla]RRR[βAla][dR]R[dR]R[βAla][dR]R[dR]R-NH2) | 0.5 (≈ 0.207 µM) | 2 (≈ 0.828 µM) | 0.5 (≈ 0.207 µM) | 0.5 (≈ 0.207 µM) | 0.5 (≈ 0.207 µM) |
| CC(C)CC[C@H](NC(=O)[C@@H](CCCNC(=N)N)NC(=O)[C@H](CCCNC(=N)N)NC(=O)[C@@H](CCCNC(=N)N)NC(=O)[C@@H]1CCCN1C(=O)[C@H](CCCNC(=N)N)NC(=O)[C@@H](CCCNC(=N)N)NC(=O)[C@H](CCCNC(=N)N)NC(=O)[C@@H](CCCNC(=N)N)NC(=O)[C@@H]1CCCN1C(=O)[C@@H](CCCNC(=N)N)NC(=O)[C@H](CCCNC(=N)N)NC(=O)[C@@H](CCCNC(=N)N)NC(=O)[C@@H]1CCCN1C(=O)[C@@H](CCCNC(=N)N)NC(=O)[C@H](CCCNC(=N)N)NC(=O)[C@@H](N)CCC(C)C)C(N)=O [SEQ ID NO: 95, (hLeu)Rr-P-rRr-P-rRrR-P-rRr(hLeu)-NH2] (H-[hLeu]R[dR]P[dR]R[dR]P[dR]R[dR]RP[dR]R[dR][hLeu]-NH2) | 1 (≈ 0.41 µM) | 0.5 (≈ 0.205 µM) | 1 (≈ 0.41 µM) | 1 (≈ 0.41 µM) | 0.5 (≈ 0.205 µM) |
| N=C(N)NCCC[C@@H](N)C(=O)N[C@@H](CCCNC(=N)N)C(=O)N[C@H](CCCNC(=N)N)C(=O)NCCOCC(=O)N[C@H](CCCNC(=N)N)C(=O)N[C@@H](CCCNC(=N)N)C(=O)N[C@H](CCCNC(=N)N)C(=O)NCCCCC(=O)N[C@H](CCCNC(=N)N)C(=O)N[C@@H](CCCNC(=N)N)C(=O)N[C@H](CCCNC(=N)N)C(=O)N[C@@H](CCCNC(=N)N)C(=O)NCCCCC(=O)N[C@H](CCCNC(=N)N)C(=O)N[C@@H](CCCNC(=N)N)C(=O)N[C@H](CCCNC(=N)N)C(=O)N[C@@H](CCCNC(=N)N)C(N)=O [SEQ ID NO: 47, rRr-(Aea)-rRr-(Ava)-rRrR-(Ava)-rRrR-NH2] (H-[dR]R[dR][AEA][dR]R[dR][Ava][dR]R[dR]R[Ava][dR]R[dR]R-NH2) | 0.5 (≈ 0.2 µM) | 1 (≈ 0.4 µM) | 0.5 (≈ 0.2 µM) | 1 (≈ 0.4 µM) | 0.5 (≈ 0.2 µM) |
| rR-(Apg)-rR-(Apg)-rRr-(Apg)-rRr-NH2 [SEQ ID NO: 39] | 0.12 | 8 | 0.25 | 0.25 | 0.12 |
| N=C(N)NCCC[C@@H](N)C(=O)N[C@@H](CCCNC(=N)N)C(=O)N[C@H](CCCNC(=N)N)C(=O)NCCC(=O)N[C@H](CCCNC(=N)N)C(=O)N[C@@H](CCCNC(=N)N)C(=O)N[C@H](CCCNC(=N)N)C(=O)NCCC(=O)N[C@H](CCCNC(=N)N)C(=O)N[C@@H](CCCNC(=N)N)C(=O)N[C@H](CCCNC(=N)N)C(=O)N[C@@H](CCCNC(=N)N)C(=O)NCCC(=O)N[C@@H](CCCNC(=N)N)C(=O)N[C@@H](CCCNC(=N)N)C(=O)N[C@@H](CCCNC(=N)N)C(=O)N[C@@H](CCCNC(=N)N)C(N)=O [SEQ ID NO: 12, rRr-(Apr)-rRr-(Apr)-rRrR-(Apr)-RRRR-NH2] (H-[dR]R[dR][βAla][dR]R[dR][βAla][dR]R[dR]R[βAla]RRRR-NH2) | 0.5 (≈ 0.207 µM) | >32 | 1 (≈ 0.414 µM) | 0.5 (≈ 0.207 µM) | 0.5 (≈ 0.207 µM) |
| N=C(N)NCCC[C@@H](N)C(=O)N[C@@H](CCCNC(=N)N)C(=O)N[C@H](CCCNC(=N)N)C(=O)NCCC(=O)N[C@H](CCCNC(=N)N)C(=O)N[C@@H](CCCNC(=N)N)C(=O)N[C@H](CCCNC(=N)N)C(=O)NCCC(=O)N[C@@H](CCCNC(=N)N)C(=O)N[C@@H](CCCNC(=N)N)C(=O)N[C@@H](CCCNC(=N)N)C(=O)N[C@@H](CCCNC(=N)N)C(=O)NCCC(=O)N[C@H](CCCNC(=N)N)C(=O)N[C@@H](CCCNC(=N)N)C(=O)N[C@H](CCCNC(=N)N)C(=O)N[C@@H](CCCNC(=N)N)C(N)=O [SEQ ID NO: 11, rRr-(Apr)-rRr-(Apr)-RRRR-(Apr)-rRrR-NH2] (H-[dR]R[dR][βAla][dR]R[dR][βAla]RRRR[βAla][dR]R[dR]R-NH2) | 0.5 (≈ 0.207 µM) | >32 | 2 (≈ 0.828 µM) | 1 (≈ 0.414 µM) | 0.5 (≈ 0.207 µM) |
| CCCCN(CC(=O)N[C@H](CCCNC(=N)N)C(=O)N[C@@H](CCCNC(=N)N)C(=O)N(CCCC)CC(=O)N[C@H](CCCNC(=N)N)C(=O)N[C@@H](CCCNC(=N)N)C(=O)N[C@H](CCCNC(=N)N)C(=O)N(CCCC)CC(=O)N[C@H](CCCNC(=N)N)C(=O)N[C@@H](CCCNC(=N)N)C(=O)N[C@H](CCCNC(=N)N)C(N)=O)C(=O)[C@H](CCCNC(=N)N)NC(=O)[C@H](N)CCCNC(=N)N [SEQ ID NO: 36, rR-(ButylGly)-rR-(ButylGly)-rRr-(ButylGly)-rRr-NH2] (H-[dR]R[NBuGly][dR]R[NBuGly][dR]R[dR][NBuGly][dR]R[dR]-NH2) | 16 (≈ 8.34 µM) | 4 (≈ 2.09 µM) | 2 (≈ 1.04 µM) | 0.5 (≈ 0.261 µM) | 2 (≈ 1.04 µM) |
| CC(C)CC[C@H](NC(=O)[C@@H](CCCNC(=N)N)NC(=O)[C@H](CCCNC(=N)N)NC(=O)[C@@H](CCCNC(=N)N)NC(=O)[C@@H]1CCCN1C(=O)[C@H](CCCNC(=N)N)NC(=O)[C@@H](CCCNC(=N)N)NC(=O)[C@H](CCCNC(=N)N)NC(=O)[C@@H](CCCNC(=N)N)NC(=O)[C@@H]1CCCN1C(=O)[C@@H](CCCNC(=N)N)NC(=O)[C@H](CCCNC(=N)N)NC(=O)[C@@H](CCCNC(=N)N)NC(=O)[C@@H]1CCCN1C(=O)[C@@H](CCCNC(=N)N)NC(=O)[C@H](CCCNC(=N)N)NC(=O)[C@H](N)CCCNC(=N)N)C(N)=O [SEQ ID NO: 93, rRr-P-rRr-P-rRrR-P-rRr(hLeu)-NH2] (H-[dR]R[dR]P[dR]R[dR]P[dR]R[dR]RP[dR]R[dR][hLeu]-NH2) | 1 (≈ 0.406 µM) | 1 (≈ 0.406 µM) | 0.5 (≈ 0.203 µM) | 0.5 (≈ 0.203 µM) | 0.5 (≈ 0.203 µM) |
| N=C(N)NCCC[C@H](NC(=O)[C@@H](CCCNC(=N)N)NC(=O)[C@H](CCCNC(=N)N)NC(=O)[C@@H](CCCNC(=N)N)NC(=O)CCNC(=O)[C@H](CCCNC(=N)N)NC(=O)[C@@H](CCCNC(=N)N)NC(=O)[C@H](CCCNC(=N)N)NC(=O)[C@@H](CCCNC(=N)N)NC(=O)CCNC(=O)[C@@H](CCCNC(=N)N)NC(=O)[C@H](CCCNC(=N)N)NC(=O)[C@@H](CCCNC(=N)N)NC(=O)CCNC(=O)[C@H](CCCNC(=N)N)NC(=O)[C@H](CCCNC(=N)N)NC(=O)[C@@H](N)CCCNC(=N)N)C(N)=O [SEQ ID NO: 9, RRR-(Apr)-rRr-(Apr)-rRrR-(Apr)-rRrR-NH2] (H-RRR[βAla][dR]R[dR][βAla][dR]R[dR]R[βAla][dR]R[dR]R-NH2) | 0.5 (≈ 0.207 µM) | 2 (≈ 0.828 µM) | 0.5 (≈ 0.207 µM) | 0.5 (≈ 0.207 µM) | 0.5 (≈ 0.207 µM) |
| N=C(N)NCCC[C@@H](N)C(=O)N[C@@H](CCCNC(=N)N)C(=O)N[C@H](CCCNC(=N)N)C(=O)NCCCCC(=O)N[C@H](CCCNC(=N)N)C(=O)N[C@@H](CCCNC(=N)N)C(=O)N[C@H](CCCNC(=N)N)C(=O)NCCCCC(=O)N[C@H](CCCNC(=N)N)C(=O)N[C@@H](CCCNC(=N)N)C(=O)N[C@H](CCCNC(=N)N)C(=O)N[C@@H](CCCNC(=N)N)C(=O)NCCNCC(=O)N[C@H](CCCNC(=N)N)C(=O)N[C@@H](CCCNC(=N)N)C(=O)N[C@H](CCCNC(=N)N)C(=O)N[C@@H](CCCNC(=N)N)C(N)=O [SEQ ID NO: 43, rRr-(Ava)-rRr-(Ava)-rRrR-(Aeg)-rRrR-NH2] | 0.5 (≈ 0.2 µM) | 1 (≈ 0.4 µM) | 0.5 (≈ 0.2 µM) | 1 (≈ 0.4 µM) | 0.5 (≈ 0.2 µM) |
